{"source": "patent US7838557B2", "about": "“Concentrated X-ray contrast media can act as universal antigens and can inhibit or prevent allergic reactions” (priority 2001, dated 2010)", "key": {"Sprague Dawley Rats": {"tested_on": "Sprague Dawley Rats", "assay": "Mean arterial blood pressure after i.v. contrast media injection, Sprague Dawley rats", "type": "in vivo", "details": "mean ± S.E."}, "IgG anti-γ-globulin": {"tested_on": "IgG anti-γ-globulin", "assay": "Passive red blood cell hemagglutination inhibition, γ-globulin vs. anti-γ-globulin", "type": "binding", "details": "γ-globulin bound to sheep RBC; incubation 2-3 hours at room temperature", "description": "Employing a highly sensitive test for antibody-antigen complexing (passive red blood cell hemagglutination inhibition), we found what we consider the answer to this problem. Ovalbumin and gamma globulin (Sigma) were bound to glutaraldehyde stabilized sheep red blood cells (Inter-Cell Technologies, Hopewell, N.J.). Bis-diazotized benzidine was used to bind the ovalbumin to the RBC's. The gamma-globulin bound directly. In both the case of the ovalbumin and the gamma-globulin, the sensitized red blood cells were allowed to incubate with each of the contrast media (methylglucamine iothalamate [CONRAY; 282 mg iodine/ml, Mallinckrodt Medical, St. Louis Mo.], ioversol [[…] 320; 320 mg iodine/ml, […]; 320 mg iodine/ml, Mallinckrodt] and […]; 300 mg iodine/ml, Schering Pharmaceutical; […] When competition occurred, there would be a diminished diameter of the agglutination, depending on the antibody titer that could be compared to a control, where saline was substituted for the CM. With complete competition (inhibition), no agglutination would be visible and the RBCs would form a small button of cells at the bottom of the microtiter well. Visible agglutination was evaluated on a 1+ to 4+ basis. Studies were also carried out where the RBCs were incubated with CM before or after binding of the antigen to BDB or the RBC to determine whether competition of the CM with the antigen might actually represent displacement of the […] from the RBC surface. It was discovered that contrast media can in fact act as an antigen and combine with antibodies ([…]. and […]., Academic Radiology 1998, 5 (suppl. 1; […]-[…])). This was shown when, at various concentrations, individual contrast media would inhibit the agglutination of RBC-attached ovalbumin or RBC-attached gamma globulin in the presence of their respective antibodies, thus resulting in a button of cells, rather than agglutination, in the bottom of the microtiter well."}, "Brown Norway Rats": {"tested_on": "Brown Norway Rats", "assay": "Mean arterial blood pressure after i.v. contrast media injection, Brown Norway rats", "type": "in vivo", "details": "mean ± S.E."}, "[1]": {"tested_on": "ovalbumin-sensitized Sprague Dawley rats", "assay": "Blood pressure in ovalbumin anaphylaxis of ovalbumin-sensitized rats", "type": "in vivo", "details": "CM i.v. 6 hours before, 45 minutes before, concurrently, or 10 minutes after 10 mg ovalbumin", "protocol": "To further substantiate the concept that contrast media, acting as pseudoantigens, could interfere with existing antigen-antibody reactions, an experiment was conducted where a series of rats were sensitized to ovalbumin and later challenged the rats by intravenous injections of ovalbumin.\nVarying CM or other materials were injected into the tail vein of anesthetized Sprague Dawley rats ([…]). The CM tested were IOXAGLATE and IODIXANOL. Both are CM dimers and IOXAGLATE is ionic and IODIXANOL is nonionic. The CM injections were done 12 to 14 days after sensitization of the rats by intraperitoneal injections of 1 mg of ovalbumin in normal saline. A Propaq blood pressure apparatus was connected to polyethylene catheters inserted into a carotid artery to monitor mean arterial blood pressure. Injection rates were 6 ml/kg/min. The CM were injected I.V. either 6 hours before, 45 minutes before, concurrent with, or 10 minutes post challenge of a dose of 10 mg of ovalbumin. Saline injections, equiosmolar to the CM and injected at the same time intervals served as controls."}, "[2]": {"tested_on": "ragweed pollen sensitized rats", "assay": "Experimental allergic conjunctivitis, ragweed pollen sensitized rats", "type": "in vivo, Sprague-Dawley rats", "description": "In this Example, the potential protective effect of a contrast material on experimental allergic conjunctivitis induced in rats was examined. The rats were sensitized systemically to either ovalbumin or ragweed pollen and 10 to 12 days later obtained local sensitization by several applications of the respective antigens to the eyes. The rats were then challenged with a larger dose of the antigen accompanied by either the contrast media or equiosmolal saline and sacrificed at several different time periods for examination of the excised eyes.\nThe tissues were examined on a “blinded” basis and assigned a 0 to 3+ rating based on the perceived abundance of inflammatory cells (mostly lymphocytes, but also including eosinophils, polymorphonuclear leukocytes, and mast cells). The ovalbumin experiment was carried out at 3 hours post antigen application (8 rats) and at 24 hours post application (8 rats) and the ragweed study was carried out at 1 hour post application (8 rats) and at 24 hours post application (8 rats). The cumulative scores for the ratings in each set of rats were recorded. Details of the ovalbumin study are as follows.\nA ragweed pollen experiment also involved 16 Sprague-Dawley rats born approximately 2 months previously and sensitized on Day 1 with SQ injections of 0.1 ml of N. saline containing 100 μg of ragweed pollen (P-0146, Sigma) and 20 mg alum. On Day 14, 20 μl of saline (left eye) or 20 μl of IODIXANOL (right eye) were applied to the eyes. 15 min. later, both eyes were treated with 10 μl of phosphate buffered saline containing 1.5 mg of ragweed pollen. The process was done 4 times at 15 min. intervals."}, "[3]": {"tested_on": "Brown-Norway and Sprague Dawley rats", "assay": "Blood pressure changes in rats after H-1 blocker, L-NAME or contrast media (text and FIGS. 4A-4B)", "type": "in vivo"}, "[4]": {"tested_on": "rats injected intradermally with serum from ovalbumin sensitized rats", "assay": "Passive cutaneous anaphylaxis (PCA), Evans Blue extravasation", "type": "in vivo", "details": "for Stain (mm ± S.E./10): 50 μl sensitized serum", "protocol": "In a further test of the ability of appropriate contrast media to mitigate ongoing antigen-antibody reactions, a passive cutaneous anaphylaxis (PCA) experiment was performed in rats.\nIn this Example, rats were injected intradermally with 50 μL of serum from ovalbumin sensitized rats and varying mixtures of Na/meglumine iothalamate (MD-76; 370 mg iodine/ml, Mallinckrodt) and normal saline to a total of 50 μl. This was followed in 5-7 hours by intravenous injections of 1 mg ovalbumin along with Evans Blue and then measurement of the subsequent extravasation of the blue coloring in the area under the skin. Evans Blue binds to serum albumin and the diameter of the area of blue indicates extravasation of albumin secondary to specific antigen-antibody reactions. […] In this case, where large amounts of CM are available due to local deposition, even an ionic monomer was sufficient to block specific antibody-antigen reactivity (see Table III below)."}}}
{"compound": "CNC(=O)c1c(I)c(NC(C)=O)c(I)c(C(=O)O)c1I.CNC[C@H](O)[C@@H](O)[C@H](O)[C@H](O)CO", "note": "[Conray, methylglucamine iothalamate]", "values": [{"measurement": "Net decrease in mean arterial blood pressure", "setting": "Sprague Dawley Rats; Monomers (4 ml)", "value": "decrease (55 ± 5.0) (3) mm Hg"}, {"measurement": "Lowest concentration of CM showing a 2+ or 3+ inhibition of 1/500 IgG anti-γ-globulin", "setting": "IgG anti-γ-globulin", "value": 28.2, "unit": "mg/mL"}, {"measurement": "Net decrease in mean arterial blood pressure", "setting": "Brown Norway Rats; Monomers (4 ml)", "value": "decrease (37 ± 1.6) (3) mm Hg"}]}
{"compound": "CNC(=O)c1c(I)c(C(=O)NCC(=O)Nc2c(I)c(C(=O)O)c(I)c(C(=O)NCCO)c2I)c(I)c(N(C)C(C)=O)c1I", "note": "[HEXABRIX, IOXAGLATE]", "values": [{"measurement": "Lowest concentration of CM showing a 2+ or 3+ inhibition of 1/500 IgG anti-γ-globulin", "setting": "IgG anti-γ-globulin", "value": 8.0, "unit": "mg/mL"}, {"measurement": "Net increase in mean arterial blood pressure", "setting": "Brown Norway Rats; Dimers (8 ml)", "value": "increase (31 ± 4.6) (3) mm Hg"}, {"measurement": "Return of blood pressure after ovalbumin challenge, compared with equiosmolar saline", "setting": "[1]", "value": "more rapid return of the blood pressure to normal levels"}]}
{"compound": "CC(=O)N(CC(O)CN(C(C)=O)c1c(I)c(C(=O)NCC(O)CO)c(I)c(C(=O)NCC(O)CO)c1I)c1c(I)c(C(=O)NCC(O)CO)c(I)c(C(=O)NCC(O)CO)c1I", "note": "(centres unmarked) [IODIXANOL]", "values": [{"measurement": "Cumulative score of inflammatory cell infiltration (0 to 3+ rating per eye)", "setting": "[2]; 1 HOUR READING, 20 μl applied to the eye before ragweed pollen, 8 rats", "value": 0}, {"measurement": "Protection against ragweed pollen conjunctivitis (in words)", "setting": "[2]; local application", "value": "provides a degree of protection"}, {"measurement": "Number of zero scores in the group", "setting": "[2]; no absolute zeros in the saline group, study (ragweed or combined) not specified", "value": 3}, {"measurement": "Return of blood pressure after ovalbumin challenge, compared with equiosmolar saline", "setting": "[1]", "value": "more rapid return of the blood pressure to normal levels"}]}
{"compound": "CN(C(=O)CC(=O)N(C)c1c(I)c(C(=O)NC(CO)C(O)CO)c(I)c(C(=O)NC(CO)C(O)CO)c1I)c1c(I)c(C(=O)NC(CO)C(O)CO)c(I)c(C(=O)NC(CO)C(O)CO)c1I", "note": "(centres unmarked) [ISOVIST, IOTROLAN]", "values": [{"measurement": "Net increase in mean arterial blood pressure", "setting": "Sprague Dawley Rats; Dimers (8 ml)", "value": "increase (11 ± 4.6) (3) mm Hg"}, {"measurement": "Lowest concentration of CM showing a 2+ or 3+ inhibition of 1/500 IgG anti-γ-globulin", "setting": "IgG anti-γ-globulin", "value": 14.0, "unit": "mg/mL"}, {"measurement": "Net increase in mean arterial blood pressure", "setting": "Brown Norway Rats; Dimers (4 ml)", "value": "increase (18 ± 0.00 (1) mm Hg"}, {"measurement": "Net increase in mean arterial blood pressure", "setting": "Brown Norway Rats; Dimers (8 ml)", "value": "increase (20 ± 2.0) (4) mm Hg"}, {"measurement": "Change in blood pressure (in words)", "setting": "[3]; production of nitric oxide blocked by L-NAME", "value": "can no longer produce an elevation in blood pressure"}, {"measurement": "Change in blood pressure (in words)", "setting": "[3]; substance injected by itself", "value": "produces an elevation in pressure"}]}
{"compound": "C[C@H](O)C(=O)Nc1c(I)c(C(=O)NC(CO)CO)c(I)c(C(=O)NC(CO)CO)c1I", "note": "[Isovue, IOPAMIDOL]", "values": [{"measurement": "Net decrease in mean arterial blood pressure", "setting": "Sprague Dawley Rats; Monomers (8 ml)", "value": "decrease (27 ± 8.6) (2) mm Hg"}, {"measurement": "Net decrease in mean arterial blood pressure", "setting": "Brown Norway Rats; Monomers (8 ml)", "value": "decrease (36 ± 8.6) (2) mm Hg"}]}
{"compound": "COC(=O)[C@@H](N)CCCNC(=N)N[N+](=O)[O-]", "note": "[L-NAME, NG-nitro-L-arginine methyl ester]", "values": [{"measurement": "Change in blood pressure (in words)", "setting": "[3]; substance injected by itself", "value": "immediate elevation in blood pressure"}]}
{"compound": "CNC(=O)c1c(I)c(NC(C)=O)c([125I])c(C(=O)[O-])c1[125I].[Na+]", "note": "[Na LOTHALAMATE]", "values": [{"measurement": "Lowest concentration of CM showing a 2+ or 3+ inhibition of 1/500 IgG anti-γ-globulin", "setting": "IgG anti-γ-globulin", "value": 28.2, "unit": "mg/mL"}]}
{"compound": "O=C(NCC(O)CO)c1c(I)c(C(=O)NCC(O)CO)c(I)c(N(CCO)C(=O)CO)c1I", "note": "(centres unmarked) [OPTIRAY, IOVERSOL]", "values": [{"measurement": "Net decrease in mean arterial blood pressure", "setting": "Sprague Dawley Rats; Monomers (8 ml)", "value": "decrease (22 ± 0.0) (1) mm Hg"}, {"measurement": "Lowest concentration of CM showing a 2+ or 3+ inhibition of 1/500 IgG anti-γ-globulin", "setting": "IgG anti-γ-globulin", "value": 16.0, "unit": "mg/mL"}, {"measurement": "Net decrease in mean arterial blood pressure", "setting": "Brown Norway Rats; Monomers (4 ml)", "value": "decrease (20 ± 1.5) (3) mm Hg"}, {"measurement": "Net decrease in mean arterial blood pressure", "setting": "Brown Norway Rats; Monomers (8 ml)", "value": "decrease (33 ± 2.8) (3) mm Hg"}]}
{"compound": "CN(C)CCOC(c1ccccc1)c1ccccc1", "note": "[diphenyhydramine, diphenhydramine]", "values": [{"measurement": "Change in blood pressure (in words)", "setting": "[3]; substance injected by itself", "value": "immediate elevation in blood pressure"}]}
{"compound": "Na/meglumine iothalamate [MD-76]", "values": [{"measurement": "Stain (mm ± S.E./10)", "setting": "[4]; Site 1: 50 μl CM, 0 μl saline", "value": "7.5 ± 7", "unit": "mm"}, {"measurement": "Stain (mm ± S.E./10)", "setting": "[4]; Site 2: 40 μl CM, 10 μl saline", "value": "10.0 ± 10", "unit": "mm"}, {"measurement": "Stain (mm ± S.E./10)", "setting": "[4]; Site 3: 30 μl CM, 20 μl saline", "value": "17.5 ± 10", "unit": "mm"}, {"measurement": "Stain (mm ± S.E./10)", "setting": "[4]; Site 4: 20 μl CM, 30 μl saline", "value": "62.5 ± 28", "unit": "mm"}, {"measurement": "Stain (mm ± S.E./10)", "setting": "[4]; Site 5: 10 μl CM, 40 μl saline", "value": "115 ± 60", "unit": "mm"}, {"measurement": "Stain", "setting": "[4]; controls with nonsensitized serum (3 rats), 0, 25, and 50 μl CM", "value": "no stain"}]}
{"compound": "meglumine/sodium diatrizoate [Angiovist]", "values": [{"measurement": "Net decrease in mean arterial blood pressure", "setting": "Brown Norway Rats; Monomers (8 ml)", "value": "decrease (40 ± 0.0) (1) mm Hg"}]}
